Legend:
PIK3C3 lipid kinase = PIK3C3 lipid kinase (Homo sapiens, UniProt Q8NEB9); assay: Biochemical Vps34 lipid kinase assay (ADP-Glo); settings: 20 μM ATP; for IC50: serial dilution 10 μM to 0.3 nM, pIC50 = -log IC50 (M); for VPS34_1microM_%ofcntrl / remaining activity at 1 µM: single dose 1 μM, residual activity compared to control (DMSO); for remaining activity at 1 µM: 1 h, read-out: VPS34_1microM_%ofcntrl
Protocol: A non-radiometric kinase assay (ADP-Glo™ Assay, Promega, Madison, Wi, USA) was used for measuring the kinase activity of the PIK3C3 lipid kinase. All kinase assays were performed in 96-well half-area microtiter plates in a 25 μl reaction volume. The reaction cocktail was pipetted in 3 steps in the following order: • 10 μl of ATP solution (in assay buffer, see below) • 5 μl of test sample in 5% DMSO 10 μl of enzyme/substrate mixture
All lipid kinase assays contained 50 mM HEPES (4-(2-hydroxyethyl)-1-piperazineethanesulfonic acid)—NaOH, pH 7.5, 1 mM EGTA ((ethylene glycol tetraacetic acid), 100 mM NaCl, 0.03% CHAPS (3-[(3-Cholamidopropyl) dimethylammonio]-1-propanesulfonate), 2 mM DTT (Dithiothreitol), 20 μM ATP (corresponding to the apparent ATP-Km), kinase (7.6 nM) and substrate (50 μM). The assay for PIK3C3 additionally contained 3 mM MnCl2.
The reaction cocktails were incubated at 30° C. for 60 minutes. The reaction was stopped with 25 μl ADP-Glo™ reagent per well. Plates were incubated for 40 minutes at room temperature, followed by addition of 50 μl kinase detection reagent per well and incubation for 60 minutes at room temperature. Signal was determined with a microplate luminescence reader (Victor, Perkin Elmer). The assay was either performed using a single dose of compound (1 μM final concentration in the assay reaction) with resulting data expressed as residual activity compared to control (DMSO), or using a serial (half-log) dilution of compounds starting at 10 μM and down to 0.3 nM (final concentrations in the assay) with data expressed as the pIC50.

EF2K = target: T1, EF2K (Homo sapiens, UniProt O00418); assay: Biochemical EF2K lysate-based kinase assay (AlphaLISA p-eEF2 Thr56); settings: LN-229 cell lysates, 10 mM ATP, pH 6.6; pIC50 = -log IC50 (M); read-out: eEF2K_C_alphalisa pIC50 (converted)
T1 construct: host or cells: LN-229 glioblastoma cell lysate
T1 sequence (O00418 1-725): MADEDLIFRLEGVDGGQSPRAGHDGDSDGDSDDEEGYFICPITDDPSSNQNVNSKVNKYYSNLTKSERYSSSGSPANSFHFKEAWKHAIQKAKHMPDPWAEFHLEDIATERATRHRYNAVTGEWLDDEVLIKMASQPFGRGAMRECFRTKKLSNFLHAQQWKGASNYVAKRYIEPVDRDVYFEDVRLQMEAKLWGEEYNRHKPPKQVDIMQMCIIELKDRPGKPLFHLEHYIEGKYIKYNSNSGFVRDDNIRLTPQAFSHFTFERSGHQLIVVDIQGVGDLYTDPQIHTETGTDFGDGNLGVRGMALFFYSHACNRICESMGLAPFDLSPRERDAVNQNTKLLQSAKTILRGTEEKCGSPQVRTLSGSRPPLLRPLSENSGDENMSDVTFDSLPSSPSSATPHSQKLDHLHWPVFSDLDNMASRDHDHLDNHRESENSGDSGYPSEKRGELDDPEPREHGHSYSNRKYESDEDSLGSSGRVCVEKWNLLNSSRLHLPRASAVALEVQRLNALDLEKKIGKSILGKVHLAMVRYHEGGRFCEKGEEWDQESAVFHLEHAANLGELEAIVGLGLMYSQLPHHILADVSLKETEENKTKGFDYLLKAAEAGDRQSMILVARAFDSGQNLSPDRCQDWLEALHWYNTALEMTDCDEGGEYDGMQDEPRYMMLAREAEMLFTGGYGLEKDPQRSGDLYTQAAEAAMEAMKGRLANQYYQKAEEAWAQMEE
Excerpt: LN-229 cells were purchased from ATCC (CRL-2611); these are glioblastoma cells. Cell lysates from LN229 were used in this kinase assay to provide both the kinase and the substrate (EF2). The AlphaLISA p-eEF2 (Thr56) detection assay was developed using a sandwich assay format with two specific antibodies recognizing different epitopes of the target, including one antibody against the phosphorylation site of interest. One anti-eEF2 antibody was conjugated onto AlphaLISA Acceptor beads, while the second antibody was biotinylated and captured by streptavidin coated Donor beads.
Compound was mixed with LN-229 cell lysates in the presence of a kinase buffer (e.g. HEPES) at a pH of 6.6, containing 10 mM Mg^2+ (e.g. magnesium acetate) and 10 mM adenosine-tri-phosphate (ATP) and incubated at room temperature for 15 minutes. The kinase reaction was stopped with excess ethylenediaminetetraacetic acid disodium salt and the biotinylated-anti phospho eEF2 antibody (3 nM) was added for 1 hour. Then the anti-EF2 acceptor beads (10 μg/ml) as well as the streptavidin coated donor beads (20 μg/ml) were added for 1 hour, and the AlphaLISA signal was measured in an Envision instrument once, left overnight, and measured again for the final read.

eEF2K = target: T2, eEF2K (Homo sapiens, UniProt O00418); assay: EF2K cell-based assay (P-EF2 AlphaLISA, 2-deoxyglucose stimulated MCF10A cells); settings: 2.5 mM 2-deoxyglucose 4 h, phosphorylation of EF2 at Thr 56, pIC50 = -log IC50 (M); for IC50: read-out: eEF2K_C_PThr56 pIC50 (converted)
T2 construct: in the immortalized epithelial breast cell lines, MCF10A; host or cells: MCF10A immortalized breast epithelial cells
T2 sequence (O00418 1-725): T1 sequence (O00418 1-725)
Protocol: In this assay, 2.5 mM 2-deoxyglucose was used to deplete intracellular ATP and activate 5′ adenosine monophosphate-activated protein kinase (AMPK) in the immortalized epithelial breast cell lines, MCF10A. MCF 10A cells were purchased from ATCC (CRL-10317).
MCF10A cells are seeded at a density of 1.25×10^5 Cells/ml at 100 μl/well in a 96-well plate and incubated for 24 hours (37° C., 5% CO2). Compound is added for 1 hour, and cell are stimulated with 2.5 mM of 2-deoxy-glucose for 4 hours. Medium is then removed, and cells are lysed in an ice-cold buffer M-PER (Thermo Scientific, 78501), containing protease and phosphatase inhibitors. P-EF2 levels are determined in these lysates using the P-EF2 AlphaLISA described above.

Sequence of PIK3C3 lipid kinase (Q8NEB9 whole entry): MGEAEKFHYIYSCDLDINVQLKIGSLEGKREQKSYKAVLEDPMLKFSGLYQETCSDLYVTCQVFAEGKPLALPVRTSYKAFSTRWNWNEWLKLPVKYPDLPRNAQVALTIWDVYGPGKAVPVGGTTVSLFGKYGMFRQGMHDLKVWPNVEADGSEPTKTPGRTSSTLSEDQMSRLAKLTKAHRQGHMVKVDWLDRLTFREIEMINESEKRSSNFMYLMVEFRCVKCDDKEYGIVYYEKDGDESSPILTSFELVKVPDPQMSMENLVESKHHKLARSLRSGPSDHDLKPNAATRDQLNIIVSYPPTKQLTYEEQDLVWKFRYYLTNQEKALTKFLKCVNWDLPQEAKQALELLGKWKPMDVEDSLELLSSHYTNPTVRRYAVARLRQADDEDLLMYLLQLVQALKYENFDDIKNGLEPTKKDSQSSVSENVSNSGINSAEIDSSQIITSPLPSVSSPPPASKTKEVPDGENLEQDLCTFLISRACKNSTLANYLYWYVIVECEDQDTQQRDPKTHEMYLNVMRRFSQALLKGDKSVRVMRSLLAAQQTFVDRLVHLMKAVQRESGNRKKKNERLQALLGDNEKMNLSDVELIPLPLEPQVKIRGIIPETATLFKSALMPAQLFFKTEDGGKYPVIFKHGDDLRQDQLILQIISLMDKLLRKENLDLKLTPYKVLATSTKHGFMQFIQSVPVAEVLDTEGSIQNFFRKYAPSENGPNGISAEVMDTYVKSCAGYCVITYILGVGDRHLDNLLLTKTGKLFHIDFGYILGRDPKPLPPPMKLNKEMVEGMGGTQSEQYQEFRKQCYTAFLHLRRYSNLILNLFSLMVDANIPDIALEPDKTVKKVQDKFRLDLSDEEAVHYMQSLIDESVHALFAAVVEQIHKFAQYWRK

SMILES: O=C1NCCCNc2ncc(cn2)-c2ccnc(c2)Nc2cccc(c2)CN2CCN(CC2)C12CC2 [Compound 107]
- IC50 (PIK3C3 lipid kinase): 3.31e-07 M
- IC50 (EF2K): 6.76e-09 M
- IC50 (eEF2K): 3.55e-07 M

SMILES: N#CC1CC2CCNC(=O)CN3CCN(CC3)Cc3cccc(c3)Nc3cc(ccn3)-c3cnc(nc3)N2C1 (stereo not shown) [Compound 78]
- VPS34_1microM_%ofcntrl (PIK3C3 lipid kinase): 43.17%
- IC50 (EF2K): 3.72e-08 M
- IC50 (eEF2K): 2.24e-06 M

SMILES: COCC1C(=O)NCCCNc2ncc(cn2)-c2ccnc(c2)Nc2cccc(c2)CN2CCN1CC2 (single isomer, unassigned) [Compound 6]
- IC50 (PIK3C3 lipid kinase): 7.59e-07 M
- IC50 (EF2K): 4.47e-08 M
- IC50 (eEF2K): 1.12e-06 M

SMILES: CC1(C)CN2CCN1CC(=O)NCCCNc1ncc(cn1)-c1ccnc(c1)Nc1cccc(c1)C2 [Compound 18]
- remaining activity at 1 µM (PIK3C3 lipid kinase): 8.79%
- IC50 (PIK3C3 lipid kinase): 1.74e-07 M
- IC50 (EF2K): 8.71e-08 M
- IC50 (eEF2K): 1.05e-06 M

SMILES: O=C1CN2CCN(CC2)Cc2cccc(c2)Nc2cc(ccn2)-c2ccc(nn2)NCCCN1 [Compound 37]
- remaining activity at 1 µM (PIK3C3 lipid kinase): 84.5%
- IC50 (EF2K): ~2.45e-05 M
- IC50 (eEF2K): > 3.02e-05 M

SMILES: O=C1CN2CCN(CC2)Cc2cccc(c2)Nc2cc(ccn2)-c2cnc(nc2)NCCS(=O)(=O)N1 [Compound 126]
- remaining activity at 1 µM (PIK3C3 lipid kinase): 52.7%
- IC50 (EF2K): 2.82e-07 M
- IC50 (eEF2K): > 3.02e-05 M

SMILES: CC1CN2Cc3cccc(c3)Nc3cc(ccn3)-c3cnc(nc3)NCCCNC(=O)CN1CC2C (stereo not shown) [Compound 35]
- remaining activity at 1 µM (PIK3C3 lipid kinase): 20.9%
- IC50 (PIK3C3 lipid kinase): 2.95e-07 M
- IC50 (EF2K): 6.46e-08 M
- IC50 (eEF2K): 2.45e-07 M

SMILES: COC(=O)C1CCNC(=O)CN2CCN(CC2)Cc2cccc(c2)Nc2cc(ccn2)-c2cnc(nc2)N1 (stereo not shown) [Compound 116]
- remaining activity at 1 µM (PIK3C3 lipid kinase): 33.5%
- IC50 (EF2K): 2.69e-06 M
- IC50 (eEF2K): 1.91e-05 M

SMILES: CN1CCCN(C)c2ncc(cn2)-c2ccnc(c2)Nc2cccc(c2)CN2CCN(CC2)CC1=O [Compound 38]
- remaining activity at 1 µM (PIK3C3 lipid kinase): 43.3%
- IC50 (EF2K): 8.51e-08 M
- IC50 (eEF2K): > 3.02e-05 M

SMILES: O=C1CN2CCN(Cc3cccc(c3)Nc3cc(ccn3)-c3cnc(nc3)NCCCN1)C1(CC1)C2 [Compound 27]
- IC50 (PIK3C3 lipid kinase): 2.57e-08 M
- IC50 (EF2K): 1.07e-08 M
- IC50 (eEF2K): ~1.23e-06 M

SMILES: CC1CN2CCN1Cc1cccc(c1)Nc1cc(ccn1)-c1cnc(nc1)N1CC(O)CC1CCNC(=O)C2 (stereo not shown) [Compound 62]
- IC50 (PIK3C3 lipid kinase): 1.23e-06 M
- IC50 (EF2K): 5.5e-09 M
- IC50 (eEF2K): 8.51e-08 M

SMILES: CC1CN2CC(=O)NCCCNc3ncc(cn3)-c3ccnc(c3)Nc3cccc(c3)CN1C(C)C2 (stereo not shown) [Compound 34]
- remaining activity at 1 µM (PIK3C3 lipid kinase): 23.5%
- IC50 (PIK3C3 lipid kinase): 3.63e-07 M
- IC50 (EF2K): 3.31e-07 M
- IC50 (eEF2K): ~2.63e-06 M

SMILES: O=C1NCCC2CC(O)CN2c2ncc(cn2)-c2ccnc(c2)Nc2cccc(c2F)CN2CCN(CC2)C12CC2 (stereo not shown) [Compound 53]
- IC50 (PIK3C3 lipid kinase): 1.78e-07 M
- IC50 (EF2K): 4.07e-09 M
- IC50 (eEF2K): 8.51e-08 M

SMILES: CC1(C)CN2CCN1Cc1cccc(c1)Nc1cc(ccn1)-c1cnc(nc1)NCCCNC(=O)C2 [Compound 19]
- IC50 (PIK3C3 lipid kinase): 2.88e-07 M
- IC50 (EF2K): 3.39e-08 M
- IC50 (eEF2K): 7.08e-07 M

SMILES: CC1CN2CCN1Cc1cccc(c1)Nc1cc(ccn1)-c1cnc(nc1)N1CCCC1CCNC(=O)C2 (stereo not shown) [Compound 48]
- remaining activity at 1 µM (PIK3C3 lipid kinase): 44.1%
- IC50 (EF2K): 7.94e-08 M
- IC50 (eEF2K): 3.16e-06 M

SMILES: O=C1CN2CCN(Cc3cccc(c3)Nc3cc(ccn3)-c3cnc(nc3)N3CCCC3CCN1)C(CO)C2 (stereo not shown) [Compound 46]
- IC50 (PIK3C3 lipid kinase): 2.34e-06 M
- IC50 (EF2K): 1.32e-08 M
- IC50 (eEF2K): 6.46e-07 M

SMILES: CN1CCCNc2ncc(cn2)-c2ccnc(c2)Nc2cccc(c2)CN2CCN(CC2)CC1=O [Compound 13]
- remaining activity at 1 µM (PIK3C3 lipid kinase): 34.9%
- IC50 (EF2K): 6.46e-07 M
- IC50 (eEF2K): 9.12e-06 M

SMILES: CNC(=O)c1ccc2cc1CN1CCN(CC1)CC(=O)NCCCNc1ncc(cn1)-c1ccnc(c1)N2 [Compound 9]
- remaining activity at 1 µM (PIK3C3 lipid kinase): 7.1%
- IC50 (PIK3C3 lipid kinase): 1.66e-07 M
- IC50 (EF2K): 3.47e-08 M
- IC50 (eEF2K): ~5.5e-06 M

SMILES: NCCCOCC1CN2CCN1Cc1cccc(c1)Nc1cc(ccn1)-c1cnc(nc1)NCCCNC(=O)C2 (stereo not shown) [Compound 114]
- IC50 (PIK3C3 lipid kinase): 5.13e-07 M
- VPS34_1microM_%ofcntrl (PIK3C3 lipid kinase): 29.15%
- IC50 (eEF2K): > 1e-05 M

SMILES: NCCCOCC1CN2CCN1Cc1cccc(c1)Nc1cc(ccn1)-c1cnc(nc1)NCCCNC(=O)C2 (stereo not shown) [Compound 148]
- IC50 (PIK3C3 lipid kinase): 9.33e-08 M
- VPS34_1microM_%ofcntrl (PIK3C3 lipid kinase): 9.53%
- eEF2K_C_PThr56 pIC50 (eEF2K): <5

— US20170022201A1, “MACROCYLIC PYRIDINE DERIVATIVES” (Janssen Pharmaceutica NV, priority 2014, published 2017)
